# From US7074777B2, “Vitamin D derivatives” (Chugai Seiyaku Kabushiki Kaisha, priority 2000, dated 2006)
# Columns and labels:
# [1] = Test Example 1: ionized calcium level in blood after single percutaneous application to dorsal skin of mice (ion selective electrode method); assay type: in vivo; conditions: Balb/c mice, dosage 1000 μg/kg, blood drawn two days after application, mean of 3 mice
# Procedure: Active vitamin D3 (1α,25 (OH)2vitamin D3) dissolved in ethanol at the concentration of 125 μg/ml, Compounds 1 to 13 (the vitamin D derivatives obtained in the above Examples) dissolved in ethanol at the concentration of 500 μg/ml and ethanol alone (as control) were percutaneously applied once to the dorsal skin of respective 8-week-old male Balb/c mice (approximately 1.5×2.0 cm^2). The dosage was 2 ml/kg and each mouse received a necklace to prevent ingestion. On the next day, the application areas were cleaned and necklaces were removed from the mice. Two days after the application, blood was drawn from each mouse in order to measure the ionized calcium level in the blood by an ion selective electrode method. In this experiment, each group contained 3 mice. The ionized calcium levels in the Table indicate the mean values.
# [2] = test system: Keratinocytes derived from human neonatal foreskin; experiment: Test Example 2: inhibition of human keratinocyte proliferation ([3H] thymidine uptake); assay type: cell-based; conditions: relative value = [IC50 (mol/l) of 1α,25(OH)2vitamin D3]/[IC50 (mol/l) of each Compound]
# Procedure: Keratinocytes derived from human neonatal foreskin (Clonetics) were inoculated in 96 well-plates (COSTAR 3595) at 2×10^3 cells/well. Active vitamin D3 (1α,25(OH)2D3) and Compounds 1 to 13 at various concentrations were added to respective wells and cultured at 2×10^3 cells/200 μl/well in KGM-2 medium for 3 days at 37° C. in 5% CO2 and 95% air. After adding [^3H] thymidine at 7.4 kBq/well, the cell culture was continued for further 1 day. After washing the wells with phosphate buffer free of calcium and magnesium (Dulbecco PBS(−), NISSUI, code 05913, pH 7.3 to 7.65) once, the cells were stripped using 0.25% […]. The [^3H] thymidine uptake of the cells was measured by a liquid scintillation counter (1450 microbeta, WALLAC). In the Table, the inhibition of human keratinocyte proliferation is expressed as follows: the relative value of each Compound with respect to active vitamin D3=[IC50 (mol/l) of 1α,25(OH)2vitamin D3]/[IC50 (mol/l) of each Compound]
Compound,Ionized Ca level [1],Human keratinocyte proliferation inhibition (relative value) [2]
"C=C1C(=CC=C2CCCC3(C)C(COCCCC(O)(CC)CC)=CCC23)CC(O)CC1O (stereo not drawn) [Compound 2, 17-(4-ethyl-4-hydroxyhexyloxymethyl)-1α,3β-dihydroxy-9,10-secoandrosta-5,7,10(19),16-tetraene]",2.12 mmol/L,1.9
"C=C1C(=CC=C2CCCC3(C)C(COCCCCC(C)(C)O)=CCC23)CC(O)CC1O (stereo not drawn) [Compound 3, 1α,3β-dihydroxy-17-(5-hydroxy-5-methylhexyloxymethyl)-9,10-secoandrosta-5,7,10(19),16-tetraene]",1.81 mmol/L,1.2
"1α, 25(OH)2D3",–,1.0
"C=C1C(=CC=C2CCCC3(C)C(COCC#CC(C)(C)O)=CCC23)CC(O)CC1O (stereo not drawn) [Compound 5, 1α,3β-dihydroxy-17-(4-hydroxy-4-methyl-2-pentynyloxymethyl)-9,10-secoandrosta-5,7,10(19),16-tetraene]",1.63 mmol/L,1.8
"C=C1C(=CC=C2CCCC3(C)C(COCCCC(C)(C)O)=CCC23)CC(O)CC1O (stereo not drawn) [Compound 4, 1α,3β-dihydroxy-17-(4-hydroxy-4-methylpentyloxymethyl)-9,10-secoandrosta-5,7,10(19),16-tetraene]",1.68 mmol/L,0.7
"C=C1C(=CC=C2CCCC3(C)C(COCCC(C)(C)O)=CCC23)CC(O)CC1O (stereo not drawn) [Compound 1, 1α,3β-dihydroxy-17-(3-hydroxy-3-methylbutoxymethyl)-9,10-secoandrosta-5,7,10(19),16-tetraene]",1.52 mmol/L,0.6
